Measurements taken from patent US6734185B2, “Pyrrolo[3,4-d]pyrimidines as corticotropin releasing factor (CRF) antagonists” (Bristol-Myers Squibb Pharma Company, priority 2000, dated 2004).
Counter-ions that a name gives are not always drawn.

SMILES	melting point [°C]
Cc1nc(NC(C2CC2)C2CC2)c2c(C)[nH]c(-c3ccc(Cl)cc3Cl)c2n1 (as salt: HCl) [Example 6]	218 to 222
CCC(CC)Nc1nc(C)nc2c1C(C)(O)N=C2c1ccc(Cl)cc1Cl (centres unmarked) [Example 7, 7-(2,4-Dichloro-phenyl)-4-(1-ethyl-propylamino)-2,5-dimethyl-5H-pyrrolo[3,4-d]pyrimidin-5-ol]	184 to 185
